Data: patent US20220347297A1, “METHODS OF PERMITTING A SUBJECT TO RECEIVE MULTIPLE DOSES OF RECOMBINANT ADENO-ASSOCIATED VIRUS” (University of Florida Research Foundation, Incorporated, priority 2014, published 2022)
“Also recorded” adds a separate entry of the source.

Experiments:
[1] = system: anti-rAAV NAbs / GAA antibody responses; details: cited from earlier work
[2] = system: B-cells (CD20), CD3 positive lymphocytes; assay: Enumeration of B- and T-lymphocyte subpopulations in peripheral blood by flow cytometry; format: in vivo, human; details: 375 mg/m^2 weekly for 3 weeks, then at 12 weeks intervals
Protocol: Enumeration of B- and T-lymphocyte subpopulations in peripheral blood was done by flow cytometry using monoclonal Abs to CD19 or CD20 for B cells and monoclonal Abs to CD3, CD4, and CD8 for T cells. Sirolimus trough levels, IgG, CD3, CD4, CD8, CD19, CD20, N-terminal pro-brain natriuretic peptide, creatine kinase, creatine kinase-MB, C-reactive protein, platelets, alkaline phosphatase, gamma-glutamyl transferase, aspartate aminotransferase, and alanine aminotransferase were measured at regular intervals.

[3] = system: AAV1 capsid proteins; assay: ELISA for circulating antibodies to AAV1 capsid in serum of Pompe subjects; details: Pompe patient, rituximab with sirolimus prior to rAAV1-GAA
Protocol: Serum samples were assayed by ELISA for circulating antibodies to the AAV1 capsid proteins.
Serum samples were assayed by enzyme linked immunosorbent assay (ELISA) for circulating antibodies to the intact AAV1 capsid and hGAA protein 21, 46. Anti-AAV1 and anti-hGAA ASR and ELISPOT assay were performed as previously described on isolated peripheral blood mononuclear cells (ref. 47).

Substance: Rituximab: monoclonal antibody that induces B-cell depletion by binding the CD20 protein found on the surface of B-cells
- GAA antibody responses to ERT ([1]; CRIM-negative infants with early-onset Pompe disease, Rituximab plus Sirolimus before initiation of ERT (Elder et al.)): able to block GAA antibody responses
- existing anti-rAAV NAbs ([1]; humans receiving rituximab for rheumatoid arthritis (ref. 33) and non-human primates): successful in reduction
- CD20 counts (B-cells) [2]: complete depletion
- immune response to rAAV vector (capsid and transgene) after B-cell depletion prior to vector exposure [3]: immune non-responsiveness; also recorded: nonresponsiveness to both capsid and transgene
